Holding throughout (type): cell-based
In assay [1] the test system is Caov-3 cells. The experiment in a line: XTT viability assay in Caov-3 cells. Here is the method:
Caov-3 or Ovcar-3 cells were plated at a density of 1×10^4 cells per well into a 96-well tissue culture plate. The cell number was determined using the Countess™ automated cell counter (Life Technologies). Where indicated paclitaxel and IGF-1 were added. The final volume of the tissue culture medium was 0.1 ml. Prior to the experiment for each 96 well plate, 5 ml XTT solution and 0.1 ml activation reagent (New England Biolabs; Cat. No. 9095S) were mixed. 50 μl of the activated solution was added to each well and incubated at 37° C. for 4 hrs. The plates were shaken gently to evenly distribute the dye in the wells. After the 4 hrs incubation the absorbance of the samples was measured using a Spectramax M5e plate reader (Molecular Devices; Mod. No. M5e) at a wavelength of 450 nm.

Assay [2] has as its system Caov-3 cells. Briefly: Apoptotic DNA ladder detection in Caov-3 cells. The settings on record: 5 nM paclitaxel for 24 hrs.
Experimental: Caov-3 cells (ATCC® HTB-75TM) were cultured in DMEM (Life Technologies; Cat. No. 31966-021) supplemented with 10% FBS (Life Technologies; Lot #41Q822OK) and GlutaMAXTM (Life Technologies; Cat. No. 35050-038). […] Cells were cultured at 37° C. with 5% CO2 and ≧95% humidity. Cells were harvested following incubation with TrypLETM Express (Life Technologies; Cat. No. 126005-010). Cell density and viability were determined by trypan blue exclusion using a Countess® Automated Cell Counter (Life Technologies; Mod No. C10281). […] Where indicated, Caov-3 cells were treated with 100 ng/ml IGFR blocking antibody (Millipore; Lot #30080) for 24 hrs, 100 ng/ml IGF-1 (Life Technologies; Lot #73159414A) for 48 hrs or 5 nM paclitaxel (Taxol® Sigma Aldrich; Lot #091M1781V) for 24 hrs. Ovcar-3 cells, where indicated, were treated with 100 ng/ml IGF-1 for 48 hrs or 25 nM paclitaxel for 24 hrs. Caov-3 or Ovcar-3 cells were plated into [MUT]^2 culture flasks in a volume of 25 ml. The cells were seeded at 1×10^6 cells per flask as determined using the CountessTM automated cell counter (Life Technologies). Where indicated paclitaxel, IGF-1, or IGF-1+paclitaxel were added. […] DNA was resuspended in 30 μl nuclease-free water (Ambion; Cat. No. AM9937) and was quantified using a NanoVue Plus Spectrophotometer (GE Healthcare). […]
The test system of assay [3] is Ovcar-3 cells. The experiment in a line: XTT viability assay in Ovcar-3 cells. The settings on record: 25 nM paclitaxel for 24 hrs (5x the concentration used in Caov-3). On the technique in general: Tetrazolium assays rely on reduction of a dye to a coloured formazan, in cell work by metabolically active cells.
Experimental: Caov-3 cells (ATCC® HTB-75™) were cultured in DMEM (Life Technologies; Cat. No. 31966-021) supplemented with 10% FBS (Life Technologies; Lot #41Q822OK) and GlutaMAX™ (Life Technologies; Cat. No. 35050-038). Ovcar-3 cells (ATCC® HTB-161™) were cultured in RPMI 1640 (LGC Standards; Cat. No. 30-2001) supplemented with 20% FBS (Life Technologies) and 10 μg/ml bovine insulin (Sigma Aldrich, Cat. No. 10516). Cells were cultured at 37° C. with 5% CO2 and ≧95% humidity. Cells were harvested following incubation with TrypLE™ Express (Life Technologies; Cat. No. 126005-010). Cell density and viability were determined by trypan blue exclusion using a Countess® Automated Cell Counter (Life Technologies; Mod No. C10281). […] Where indicated, Caov-3 cells were treated with 100 ng/ml IGFR blocking antibody (Millipore; Lot #30080) for 24 hrs, 100 ng/ml IGF-1 (Life Technologies; Lot #73159414A) for 48 hrs or 5 nM paclitaxel (Taxol® Sigma Aldrich; Lot #091M1781V) for 24 hrs. Ovcar-3 cells, where indicated, were treated with 100 ng/ml IGF-1 for 48 hrs or 25 nM paclitaxel for 24 hrs. […] The cell number was determined using the Countess™ automated cell counter (Life Technologies). […] After the 4 hrs incubation the absorbance of the samples was measured using a Spectramax M5e plate reader (Molecular Devices; Mod. No. M5e) at a wavelength of 450 nm.
In assay [4] the test system is Ovcar-3 cells. The experiment in a line: Invasion assay (Matrigel Boyden chamber) in Ovcar-3 cells. The settings on record: 100 ng/ml IGF-1, vs untreated, n=2. As to the method: FBS (10%) mediated cell migration through an extracellular matrix was measured by Boyden chamber assay [(BD Biocoat™ Matrigel invasion chamber) BD Biosciences; Cat. No. 354480)] following the manufacturer's instructions. Briefly, Caov-3 cells were transfected with PAPPA siRNA or control siRNA (negative control) as described above. Caov-3 cells were treated with IGFR blocking antibody or untreated as described previously. Ovcar-3 cells were treated with IGF-1 or untreated as described previously. Prior to transfections or treatments the cells were serum starved for 24 hrs. Caov-3 cells were collected in DMEM medium containing 5% BSA, counted and 0.5×10^5 cells were added to each invasion assay chamber. Ovcar-3 cells were collected in RPMI medium containing 5% BSA, counted and 2×10^5 cells were added to each invasion assay chamber. After incubation for 48 hrs the invasion chamber inserts were washed with PBS, fixed in 4% formaldehyde for 5 min, stained with 0.01% crystal violet or haematoxylin and cells from random areas on the filters were counted.

Assay [5] relates to Ovcar-3 cells. Briefly: Mitotic phase distribution analysis (H3S10ph immunostaining) in Ovcar-3 cells. The note with it: 100 ng/ml IGF-1 for 48 hrs, vs untreated, p=0.055.

As to `CC(=O)O[C@H]1C(=O)[C@@]2(C)[C@H]([C@H](OC(=O)c3ccccc3)[C@]3(O)C[C@H](OC(=O)[C@H](O)[C@@H](NC(=O)c4ccccc4)c4ccccc4)C(C)=C1C3(C)C)[C@]1(OC(C)=O)CO[C@@H]1C[C@@H]2O` [paclitaxel], the “cell viability (XTT assay)” value with Caov-3 cells [1] (5 nM paclitaxel for 24 hrs) was “decreased”. In addition, the “apoptosis (DNA apoptosis kit)” value with Caov-3 cells [2] is on record as “induction of apoptosis”. Further, the “response to paclitaxel treatment (morphology, XTT viability, apoptosis)” value in the assay with Ovcar-3 cells [3] is reported as “not responding”.

As for “IGF-1: insulin-like growth factor-1, recombinant, exogenously added (Life Technologies); IGF-1 receptor agonist”, in the assay with Ovcar-3 cells [4], the “invasiveness (number of invading cells, Boyden chamber assay)” value is reported as “reduced”. Also, the “cell viability (XTT assay)” value in the assay on Caov-3 cells [1] (100 ng/ml IGF-1 for 48 hrs, added alone) was “no effect”. Further, the “mitotic delay (mitotic cells in prophase/prometaphase)” value in the assay on Ovcar-3 cells [5] is “decrease”.

For the origin of these results see patent US20160299147A1, “SCREENING, DIAGNOSIS, PROGNOSTICATION AND TREATMENT OF OVARIAN CANCER” (AFG TECHNOLOGIES S.À.R.L., priority 2013, published 2016).
